Data taken from patent publication US6586407B1, “Injectable pharmaceutical formulations for partricin derivatives” (Quatex N.V., priority 1998, dated 2003).

System: mice
Test: Single dose i.v. toxicity (LD50) in mice
Type: in vivo
Protocol: In single dose testing in mice, the i.v. 50% lethal dose (LD50) of the SPA-S-843 formulation, obtained according to Example 15, is increased from 70 mg/kg to >200 mg/kg

## CNc1ccc(C(=O)CC(O)CC[C@H](C)C2OC(=O)C[C@H](O)CC(=O)C[C@H](O)C[C@H](O)C[C@H](O)C[C@H](O)C[C@]3(O)C[C@H](O)[C@@H](C(=O)NCCN(C)C)[C@H](C[C@@H](O[C@@H]4O[C@H](C)[C@@H](O)[C@H](NC(=O)CN(C)C)[C@@H]4O)/C=C/C=C/C=C/C=C/C=C/C=C/C=C/C2C)O3)cc1.N[C@@H](CC(=O)O)C(=O)O.N[C@@H](CC(=O)O)C(=O)O (stereo partly shown) [SPA-S-843, N-dimethylaminoacetyl-partricin A 2-dimethylamino-ethylamide diascorbate]
  i.v. 50% lethal dose (LD50): 70 mg/kg
